Measured values: publication PMC9804871, “Effect of Opicapone on Levodopa Pharmacokinetics in Patients with Fluctuating Parkinson's Disease” (Movement Disorders, 2022)
Marks after values point to notes of the source that are not given here.

Tests used:
[1] = 12-hour levodopa plasma pharmacokinetics; type: in vivo, human (patients with PD); conditions: for Levodopa AUCτ / Levodopa Cavg / Levodopa Cmax / Levodopa Cmin: mean; for Levodopa tmax: median; for Levodopa Cmax (over all intakes of the 12-hour pharmacokinetics; Cmax,max) / Levodopa Cmin (over all intakes, excluding first predose; Cmin,min): mean (%CV); for Levodopa Cmin,min, geometric mean (90% CI): N 11; for Levodopa Cmax,max, geometric mean (90% CI): N 12
Method: The study design is illustrated in Figure 1.
Pharmacokinetic evaluation occurred over 12 hours with sampling every 30 minutes, except for the last sample following each LD dose in the opicapone plus four LD intake regimen, which was sampled at 1 hour. The main pharmacokinetics parameters assessed included maximum observed plasma concentration (Cmax), time to achieve peak plasma levels (tmax), minimum observed plasma concentration (Cmin), plasma elimination half‐life (t1/2), area under the curve (AUC), and fluctuation index (FI; as an expression of peak‐to‐trough fluctuation, Cmax, and Cmin, relative to average concentration [Cavg]). The pharmacokinetics of the LD metabolite 3‐O‐methyldopa (3‐OMD) was also evaluated.
Descriptive statistics were used to summarize the pharmacokinetics parameters for LD and 3‐OMD for each of the three regimens. […] No formal comparison was performed between opicapone regimens.

[2] = system: patients with PD and end-of-dose motor fluctuations; experiment: 12-hour patient on/off monitoring on pharmacokinetics days; type: in vivo, human (patients with PD); conditions: 5-intake LD/CD 500/125mg vs 4-intake LD/CD 400/100mg plus OPC 50mg, mean
Method: Clinical and safety/tolerability outcomes were also assessed as exploratory secondary outcomes. Clinical outcomes included on and off time assessed using patient‐rated tools. The timing of on and off states was registered (in real time) by the investigators during the matching 12‐hour pharmacokinetic evaluation (as such applied on pharmacokinetics days only), and patients also completed 24‐hour patient Hauser on/off diary charts[21] (in 30‐minute blocks) during the 3 days before each pharmacokinetic visit. Diary states of interest were off time and on time, including on without dyskinesia, on with nontroublesome dyskinesia, and on with troublesome dyskinesia. In addition, the Patient Global Impression of Change (PGI‐C) of opicapone 50 mg was evaluated at the end of the LD/CD 400/100 mg plus opicapone treatment compared with before the start of opicapone treatment.[22] Safety and tolerability endpoints included treatment‐emergent adverse events (TEAEs), serious TEAEs, and TEAEs leading to discontinuation.
Clinical outcomes are also presented descriptively. A paired t test was used for the comparison of 12‐hour off and on time, 24‐hour off and on time, time to on, and time to best on between each opicapone‐containing regimen and the regimen without opicapone. Estimates of mean difference and corresponding 90% CIs were reported for all main variables.

[3] = five-intake LD/CD 500/125 mg vs five-intake LD/CD 400/100 mg plus opicapone 50 mg, first LD/CD intake
[4] = five-intake LD/CD 500/125 mg vs five-intake LD/CD 400/100 mg plus opicapone 50 mg, fourth LD/CD intake
[5] = five-intake LD/CD 500/125 mg vs five-intake LD/CD 400/100 mg plus opicapone 50 mg
[6] = five-intake LD/CD 500/125 mg vs five-intake LD/CD 400/100 mg plus opicapone 50 mg, second LD/CD intake
[7] = five-intake LD/CD 500/125 mg vs five-intake LD/CD 400/100 mg plus opicapone 50 mg, third LD/CD intake
[8] = five-intake LD/CD 500/125 mg vs four-intake LD/CD 400/100 mg plus opicapone 50 mg, first LD/CD intake
[9] = five-intake LD/CD 500/125 mg vs four-intake LD/CD 400/100 mg plus opicapone 50 mg, fourth LD/CD intake
[10] = five-intake LD/CD 500/125 mg vs four-intake LD/CD 400/100 mg plus opicapone 50 mg
[11] = five-intake LD/CD 500/125 mg vs four-intake LD/CD 400/100 mg plus opicapone 50 mg, second LD/CD intake
[12] = five-intake LD/CD 500/125 mg vs four-intake LD/CD 400/100 mg plus opicapone 50 mg, third LD/CD intake
[13] = five-intake levodopa/carbidopa 500/125 mg vs five-intake levodopa/carbidopa 400/100 mg plus opicapone 50 mg
[14] = five-intake levodopa/carbidopa 500/125 mg vs four-intake levodopa/carbidopa 400/100 mg plus opicapone 50 mg

levodopa/carbidopa [LD/CD]
Levodopa AUCτ [1, 3]: 1788^b h · ng/mL
Levodopa Cavg [1, 3]: 596^b ng/mL
Levodopa Cmax [1, 3]: 1356 ng/mL
Levodopa Cmin [1, 3]: 18.1 ng/mL
Levodopa tmax [1, 3]: 0.5 h
Levodopa AUCτ [1, 4]: 2871^d h · ng/mL
Levodopa Cavg [1, 4]: 957^d ng/mL
Levodopa Cmax [1, 4]: 1540 ng/mL
Levodopa Cmin [1, 4]: 455 ng/mL
Levodopa tmax [1, 4]: 1.5 h
Levodopa Cmax (over all intakes of the 12-hour pharmacokinetics; Cmax,max) [1, 5]: 1999 (26.3) ng/mL
Levodopa Cmin (over all intakes, excluding first predose; Cmin,min) [1, 5]: 267.0 (82.9) ng/mL
Levodopa AUCτ [1, 6]: 2269^b h · ng/mL
Levodopa Cavg [1, 6]: 756^b ng/mL
Levodopa Cmax [1, 6]: 1466 ng/mL
Levodopa Cmin [1, 6]: 283 ng/mL
Levodopa tmax [1, 6]: 1.0 h
Levodopa AUCτ [1, 7]: 2871^d h · ng/mL
Levodopa Cavg [1, 7]: 957^d ng/mL
Levodopa Cmax [1, 7]: 1530 ng/mL
Levodopa Cmin [1, 7]: 365 ng/mL
Levodopa tmax [1, 7]: 0.5 h
Levodopa AUCτ [1, 8]: 2076 ng·h/mL
Levodopa Cavg [1, 8]: 692 ng/mL
Levodopa Cmax [1, 8]: 1393 ng/mL
Levodopa Cmin [1, 8]: 18.6 ng/mL
Levodopa tmax [1, 8]: 0.75 h
Levodopa AUCτ [1, 9]: 3414^d h · ng/mL
Levodopa Cavg [1, 9]: 1138^d ng/mL
Levodopa Cmax [1, 9]: 1852 ng/mL
Levodopa Cmin [1, 9]: 559 ng/mL
Levodopa tmax [1, 9]: 1.5 h
Levodopa Cmax (over all intakes of the 12-hour pharmacokinetics; Cmax,max) [1, 10]: 2130 (25.8) ng/mL
Levodopa Cmin (over all intakes, excluding first predose; Cmin,min) [1, 10]: 264.5 (32.8) ng/mL
Levodopa AUCτ [1, 11]: 2637^c h · ng/mL
Levodopa Cavg [1, 11]: 879^c ng/mL
Levodopa Cmax [1, 11]: 1751 ng/mL
Levodopa Cmin [1, 11]: 266 ng/mL
Levodopa tmax [1, 11]: 1.5 h
Levodopa AUCτ [1, 12]: 2850^f h · ng/mL
Levodopa Cavg [1, 12]: 950^f ng/mL
Levodopa Cmax [1, 12]: 1310 ng/mL
Levodopa Cmin [1, 12]: 403 ng/mL
Levodopa tmax [1, 12]: 1.5 h
Levodopa Cmin,min, geometric mean (90% CI) [1, 13]: 218.9 (156.1, 307.0) ng/mL
Levodopa Cmax,max, geometric mean (90% CI) [1, 13]: 1931 (1667, 2237) ng/mL
Levodopa Cmin,min, geometric mean (90% CI) [1, 14]: 252.2 (211.4, 301.0) ng/mL
Levodopa Cmax,max, geometric mean (90% CI) [1, 14]: 2059 (1782, 2380) ng/mL
OFF-time ([2]; 1st LD/CD intake): 79.8 min
ON-time ([2]; 1st LD/CD intake): 100.3 min
ON-time With Dyskinesia ([2]; 1st LD/CD intake): 45.0 min
ON-time Without Dyskinesia ([2]; 1st LD/CD intake): 92.8 min
Time to Best-ON ([2]; 1st LD/CD intake): 55.0 min
Time to ON ([2]; 1st LD/CD intake): 38.9 min
OFF-time ([2]; 2nd LD/CD intake): 106.9 min
ON-time ([2]; 2nd LD/CD intake): 73.1 min
ON-time With Dyskinesia ([2]; 2nd LD/CD intake): 23.3 min
ON-time Without Dyskinesia ([2]; 2nd LD/CD intake): 67.3 min
